Test results taken from patent US20230100173A1, “A TOPICAL COMPOSITION COMPRISING AN EXTRACT OF COMBINED HERBS […] ARILLUS FOR TLSP INHIBITION AND THE TREATMENT OR A[…] SKIN INFLAMMATORY DISEASE AND THE USE THEREOF” (ME[…]., LTD, priority 2020, published 2023).

How the values were obtained:
[1] = tested on: IL-1β; test: Inhibition of TNF alpha-induced IL-1β expression in HaCaT cells (RT-PCR); type: cell-based, human; details: TNFα 50 ng/ml, extract 1 μg/ml, Dex 200 nM, mean
Protocol: (§1) In order to determine the anti-inflammatory activity of inventive extract, following inhibition test of cytokine expression using HaCaT cell was performed according to the procedure disclosed in the literature (Jeong et al., 2019, J. Invest. Dermatol., May; 139 (5): pp 1098-1109).
(§2) HaCaT cell (human epithelial keratinocyte cell, 300493, CLS) was inoculated into DMEM medium containing 10% Fetal bovine serum, 100 units/m1 of penicillin, 100n/m1 of streptomycin (D6429, Sigma-Aldrich Co. Ltd) and was incubated in the incubator (HERA cell 150i, Thermo Fisher Scientific Co. Ltd.) maintaining optimum humidity (85-95%) and 5% CO2 atmosphere.
(§3) For performing gene expression test, the incubated cells were transferred to 12 wells and 50 ng/ml of TNF alpha (RC214-12, Biobasic Co. Ltd) was treated therewith for 1 hour to induce inflammatory response.
(§4) 1 hour after inducing the inflammation, 1 μg/ml of inventive extract prepared in Examples was treated with identical medium and subjected to incubation for 1 hour. After the incubation, RNA (FATRR-001, Favorgen) was extracted from the cell and cDNA was synthesized from the RNA using by cDNA synthesis kit (RRO36A, TAKARA). […]

[2] = tested on: IL-22; test: IL-22 expression in dorsal skin of DNFB mice (RT-PCR); type: in vivo, mouse; details: 16th day, WIN-1001X 10 mg/ml, DEX 200 μM, DNFB+DIW 29.2
[3] = tested on: IL-10; test: IL-10 expression in dorsal skin of DNFB mice (RT-PCR); type: in vivo, mouse; details: 16th day, WIN-1001X 10 mg/ml, DEX 200 μM, DNFB+DIW 19.3
Protocol: (§5) 100 μL of 0.15% (w/v) DNFB (2,4-dinitrofluorobenzene, D1529, Sigma-Aldrich Co. Ltd.) was spread on […] of 6 weeks-old BALB/C female mouse (DBL Co., Ltd. Incheon, Korea) and after removing the central dorsal hair, 100 μL of 0.15% (w/v) DNFB (2,4-dinitrofluorobenzene, D1529, Sigma-Aldrich Co. Ltd.) was spread at every third day starting from at 7th day to 16th day to induce skin inflammation.
(§6) In order to determine the anti-inflammatory activity of inventive extract, following inhibition test of cytokine expression using test animal was performed according to the procedure disclosed in the literature (Li et al., Drug. Des. Devel. Ther., 2016, Feb. 19; 10:781-191).
(§7) At 16th day after the treatment of DNFB, RNA (FATRR-001, Favorgan) was extracted from the dorsal skin of mice prepared in Experimental Example 2 and cDNA was synthesized from the RNA using by cDNA synthesis kit (RRO36A, TAKARA). The polymerization reaction was performed using by the synthesized cDNA and Sybrgreen kit (RT500M, Enzynomics) and then Real-time-PCR was performed using by primers for various cytokines involved in skin inflammation (GADPH, TSLP, GM-CSF, IL-4, IL-10, IL-13, IL-31 and IL-33) as disclosed in Table 7.

[4] = tested on: TSLP; test: TSLP expression in dorsal skin of DNFB mice (RT-PCR); type: in vivo, mouse; details: 16th day, WIN-1001X 10 mg/ml, DEX 200 μM, DNFB+DIW 7.51
Protocol: as §5
In order to determine the anti-inflammatory activity of inventive extract, following inhibition test of TSLP cytokine expression using test animal was performed according to the procedure disclosed in the literature (Li et al., Drug. Des. Devel. Ther., 2016, Feb. 19; 10:781-191).
as §7, with “TSLP” for “various”, “inflammation” for “inflammation (GADPH, TSLP, GM-CSF, IL-4, IL-10, IL-13, IL-31 and IL-33)”

[5] = tested on: IL-33; test: IL-33 expression in dorsal skin of DNFB mice (RT-PCR); type: in vivo, mouse; details: 16th day, WIN-1001X 10 mg/ml, DEX 200 μM, DNFB+DIW 9.47
Protocol: as §5, §6, §7

[6] = tested on: IL-4; test: IL-4 expression in dorsal skin of DNFB mice (RT-PCR); type: in vivo, mouse; details: 16th day, WIN-1001X 10 mg/ml, DEX 200 μM, DNFB+DIW 11.4
Protocol: as §5, §6, §7

[7] = tested on: IL-31; test: IL-31 expression in dorsal skin of DNFB mice (RT-PCR); type: in vivo, mouse; details: 16th day, WIN-1001X 10 mg/ml, DEX 200 μM, DNFB+DIW 3.93
Protocol: as §5, §6, §7

[8] = tested on: TSLP; test: Inhibition of TNF alpha-induced TSLP expression in HaCaT cells (RT-PCR); type: cell-based, human; details: TNFα 50 ng/ml, extract 1 μg/ml, Dex 200 nM, mean
Protocol: as §1, §2, §3, §4

[9] = tested on: mast cells infiltrated into inflamed lesion; type: in vivo, mouse; details: DNFB BALB/C mice, 16th day, toluidine blue; topical WIN-1001X 10 mg/ml, DEX 200 μM; acetone+DIW = 1, DNFB+DIW 3.18
Protocol: (§8) Ltd.) was spread at every third day starting from at 7th day to 16th day to induce skin inflammation. […] Additionally, the histological analysis on skin tissue of test animal has been performed. Specifically, the dorsal skin tissue occurring dermatitis was fixed on 4% (w/v) paraformaldehyde solution ([MUT], Sigma-Aldrich) in shaker maintaining 4° C. (CR300, […] ) at 16th day after the sample treatment and 12 hours after the fixation, the dehydrated and transparent tissue was embedded in paraffin, sliced (5 μm of width) to make tissue slices.

[10] = tested on: skin epidermal layer; type: in vivo, mouse; details: DNFB BALB/C mice, 16th day, H&E; topical WIN-1001X 10 mg/ml, DEX 200 μM; acetone+DIW = 1, DNFB+DIW 7.06
Protocol: as §8

[11] = tested on: DNFB-induced skin dermatitis, BALB/C female mouse; test: DNFB-induced atopic dermatitis in BALB/C mice, skin dermatitis severity score; type: in vivo; details: 16th day, topical WIN-1001X 10 mg/ml, DEX 200 μM, DNFB+DIW 8.8
Protocol: To confirm the inhibitory effect of inventive extract on the atopic dermatitis, the animal model test using by mice, was performed according to the method disclosed in the reference (Li et al., Drug. Des. Devel. Ther., 2016, Feb. 19; 10:781-191).
as §5
For the purpose of comparing with test group, the identical test excepting using acetone instead of DNFB and DIW instead of test sample with the above procedure was performed.

[12] = tested on: IL-13; test: IL-13 expression in dorsal skin of DNFB mice (RT-PCR); type: in vivo, mouse; details: 16th day, WIN-1001X 10 mg/ml, DEX 200 μM, DNFB+DIW 48.6
Protocol: as §5, §6, §7

## C[C@@H]1C[C@H]2[C@@H]3CCC4=CC(=O)C=C[C@]4(C)[C@@]3(F)[C@@H](O)C[C@]2(C)[C@@]1(O)C(=O)CO [DEX, Dexamethasone]
[1]
  IL-1β expression (RT-PCR, relative to untreated = 1): 1.081
[2]
  IL-22 expression (RT-PCR, relative to acetone+DIW = 1): 13.08
[3]
  IL-10 expression (RT-PCR, relative to acetone+DIW = 1): 20.44
[4]
  TSLP expression (RT-PCR, relative to acetone+DIW = 1): 1.311
[5]
  IL-33 expression (RT-PCR, relative to acetone+DIW = 1): 0.7365
[6]
  IL-4 expression (RT-PCR, relative to acetone+DIW = 1): 4.798
[7]
  IL-31 expression (RT-PCR, relative to acetone+DIW = 1): 1.001
[8]
  TSLP expression (RT-PCR, relative to untreated = 1): 52.49
[9]
  relative number of mast cells: 0.8548 fold
[10]
  relative area of epidermis: 1.638 fold
[11]
  Improving effect on skin dermatitis (severity score, total score 12): 2.2
[12]
  IL-13 expression (RT-PCR, relative to acetone+DIW = 1): 12.56
